Assay results taken from PubChem BioAssay (NCI).
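Values below derive from 48-hour exposures of cells grown in 96-well plates, with endpoints linearly interpolated between the two concentrations bracketing the appropriate inhibition level. TGI is the concentration that stops growth completely.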

Columns and labels:
Experiment in all cases: NCI-60 cell line screen, 48 h
786-0 renal = tested on: 786-0 renal
A498 renal = tested on: A498 renal
A549 NSCLC = tested on: A549 NSCLC
ACHN renal = tested on: ACHN renal
BT-549 breast = tested on: BT-549 breast
CAKI-1 renal = tested on: CAKI-1 renal
COLO 205 colon = tested on: COLO 205 colon
DU-145 prostate = tested on: DU-145 prostate
EKVX NSCLC = tested on: EKVX NSCLC
HCC-2998 colon = tested on: HCC-2998 colon
HCT-116 colon = tested on: HCT-116 colon
HCT-15 colon = tested on: HCT-15 colon
HL-60(TB) leukemia = tested on: HL-60(TB) leukemia
HOP-62 NSCLC = tested on: HOP-62 NSCLC
HOP-92 NSCLC = tested on: HOP-92 NSCLC
HS 578T breast = tested on: HS 578T breast
HT29 colon = tested on: HT29 colon
IGROV1 ovarian = tested on: IGROV1 ovarian
K-562 leukemia = tested on: K-562 leukemia
KM12 colon = tested on: KM12 colon
LOX IMVI melanoma = tested on: LOX IMVI melanoma
M14 melanoma = tested on: M14 melanoma
MALME-3M melanoma = tested on: MALME-3M melanoma
MCF7 breast = tested on: MCF7 breast
MDA-MB-231 breast = tested on: MDA-MB-231 breast
MDA-MB-435 = tested on: MDA-MB-435
MDA-N = tested on: MDA-N
MOLT-4 leukemia = tested on: MOLT-4 leukemia
NCI-H226 lung = tested on: NCI-H226 lung
NCI-H23 lung = tested on: NCI-H23 lung
NCI-H460 lung = tested on: NCI-H460 lung
NCI-H522 lung = tested on: NCI-H522 lung
NCI/ADR-RES ovarian = tested on: NCI/ADR-RES ovarian
OVCAR-4 ovarian = tested on: OVCAR-4 ovarian
OVCAR-5 ovarian = tested on: OVCAR-5 ovarian
OVCAR-8 ovarian = tested on: OVCAR-8 ovarian
PC-3 prostate = tested on: PC-3 prostate
RPMI-8226 leukemia = tested on: RPMI-8226 leukemia
RXF 393 renal = tested on: RXF 393 renal
SF-268 CNS = tested on: SF-268 CNS
SF-295 CNS = tested on: SF-295 CNS
SF-539 CNS = tested on: SF-539 CNS
SK-MEL-2 melanoma = tested on: SK-MEL-2 melanoma
SK-MEL-28 melanoma = tested on: SK-MEL-28 melanoma
SK-MEL-5 melanoma = tested on: SK-MEL-5 melanoma
SK-OV-3 ovarian = tested on: SK-OV-3 ovarian
SN12C renal = tested on: SN12C renal
SNB-19 CNS = tested on: SNB-19 CNS
SNB-75 CNS = tested on: SNB-75 CNS
SR leukemia = tested on: SR leukemia
SW-620 colon = tested on: SW-620 colon
T-47D breast = tested on: T-47D breast
TK-10 renal = tested on: TK-10 renal
U251 CNS = tested on: U251 CNS
UACC-257 melanoma = tested on: UACC-257 melanoma
UACC-62 melanoma = tested on: UACC-62 melanoma
UO-31 renal = tested on: UO-31 renal
CCRF-CEM leukemia = tested on: CCRF-CEM leukemia
OVCAR-3 ovarian = tested on: OVCAR-3 ovarian

CCN(CC)C(=S)SNc1ccc(S(N)(=O)=O)cc1
TGI (786-0 renal): > 71 µM | TGI (A498 renal): > 100 µM | TGI (A549 NSCLC): > 100 µM | TGI (ACHN renal): > 100 µM | TGI (BT-549 breast): > 100 µM | TGI (CAKI-1 renal): > 90.6 µM | TGI (COLO 205 colon): > 100 µM | TGI (DU-145 prostate): > 100 µM | TGI (EKVX NSCLC): > 100 µM | TGI (HCC-2998 colon): > 100 µM | TGI (HCT-116 colon): > 100 µM | TGI (HCT-15 colon): > 100 µM | TGI (HL-60(TB) leukemia): > 100 µM | TGI (HOP-62 NSCLC): > 100 µM | TGI (HOP-92 NSCLC): > 100 µM | TGI (HS 578T breast): > 100 µM | TGI (HT29 colon): > 54.6 µM | TGI (IGROV1 ovarian): > 100 µM | TGI (K-562 leukemia): > 100 µM | TGI (KM12 colon): > 100 µM | TGI (LOX IMVI melanoma): > 100 µM | TGI (M14 melanoma): > 67.7 µM | TGI (MALME-3M melanoma): 97.3 µM | TGI (MCF7 breast): > 100 µM | TGI (MDA-MB-231 breast): > 100 µM | TGI (MDA-MB-435): > 100 µM | TGI (MDA-N): > 100 µM | TGI (MOLT-4 leukemia): > 100 µM | TGI (NCI-H226 lung): > 100 µM | TGI (NCI-H23 lung): > 100 µM | TGI (NCI-H460 lung): > 100 µM | TGI (NCI-H522 lung): 29.5 µM | TGI (NCI/ADR-RES ovarian): > 100 µM | TGI (OVCAR-4 ovarian): > 100 µM | TGI (OVCAR-5 ovarian): > 72.3 µM | TGI (OVCAR-8 ovarian): 66 µM | TGI (PC-3 prostate): > 100 µM | TGI (RPMI-8226 leukemia): > 78.9 µM | TGI (RXF 393 renal): > 82.8 µM | TGI (SF-268 CNS): > 100 µM | TGI (SF-295 CNS): > 100 µM | TGI (SF-539 CNS): > 100 µM | TGI (SK-MEL-2 melanoma): > 100 µM | TGI (SK-MEL-28 melanoma): > 100 µM | TGI (SK-MEL-5 melanoma): > 100 µM | TGI (SK-OV-3 ovarian): > 100 µM | TGI (SN12C renal): > 100 µM | TGI (SNB-19 CNS): > 100 µM | TGI (SNB-75 CNS): > 100 µM | TGI (SR leukemia): > 85.6 µM | TGI (SW-620 colon): 19.3 µM | TGI (T-47D breast): > 100 µM | TGI (TK-10 renal): > 100 µM | TGI (U251 CNS): > 100 µM | TGI (UACC-257 melanoma): > 100 µM | TGI (UACC-62 melanoma): > 100 µM | TGI (UO-31 renal): > 100 µM

O=C(NO)c1ccc(OCc2cccc(Cl)c2)cc1
TGI (786-0 renal): 19.1 µM | TGI (A498 renal): 20 µM | TGI (A549 NSCLC): > 63.8 µM | TGI (ACHN renal): 25 µM | TGI (BT-549 breast): 48 µM | TGI (CAKI-1 renal): 37.5 µM | TGI (CCRF-CEM leukemia): > 100 µM | TGI (COLO 205 colon): 51.7 µM | TGI (DU-145 prostate): > 47.3 µM | TGI (EKVX NSCLC): 30.2 µM | TGI (HCC-2998 colon): 24.4 µM | TGI (HCT-116 colon): 14.4 µM | TGI (HCT-15 colon): 29.9 µM | TGI (HL-60(TB) leukemia): 20.8 µM | TGI (HOP-62 NSCLC): > 47 µM | TGI (HOP-92 NSCLC): 51.4 µM | TGI (HS 578T breast): > 96 µM | TGI (HT29 colon): 25.6 µM | TGI (IGROV1 ovarian): 23.3 µM | TGI (K-562 leukemia): > 31.6 µM | TGI (KM12 colon): 29.9 µM | TGI (LOX IMVI melanoma): > 56.6 µM | TGI (M14 melanoma): > 45.8 µM | TGI (MCF7 breast): > 100 µM | TGI (MDA-MB-231 breast): 43.2 µM | TGI (MDA-MB-435): 44 µM | TGI (MDA-N): 35.4 µM | TGI (MOLT-4 leukemia): > 45.9 µM | TGI (NCI-H226 lung): 36 µM | TGI (NCI-H23 lung): 20.9 µM | TGI (NCI-H460 lung): 26 µM | TGI (NCI-H522 lung): 19.2 µM | TGI (NCI/ADR-RES ovarian): > 29.8 µM | TGI (OVCAR-3 ovarian): > 64.1 µM | TGI (OVCAR-4 ovarian): > 58 µM | TGI (OVCAR-5 ovarian): > 40.8 µM | TGI (OVCAR-8 ovarian): 33.3 µM | TGI (PC-3 prostate): > 44.1 µM | TGI (RPMI-8226 leukemia): > 58.9 µM | TGI (RXF 393 renal): 47.6 µM | TGI (SF-268 CNS): 38.2 µM | TGI (SF-295 CNS): 35.2 µM | TGI (SF-539 CNS): > 41.8 µM | TGI (SK-MEL-2 melanoma): 70.4 µM | TGI (SK-MEL-28 melanoma): 65.1 µM | TGI (SK-MEL-5 melanoma): > 100 µM | TGI (SK-OV-3 ovarian): 66.1 µM | TGI (SN12C renal): 55.9 µM | TGI (SNB-19 CNS): > 100 µM | TGI (SNB-75 CNS): > 70.2 µM | TGI (SR leukemia): > 28.5 µM | TGI (SW-620 colon): > 100 µM | TGI (T-47D breast): > 61.5 µM | TGI (TK-10 renal): 32.3 µM | TGI (U251 CNS): > 60.5 µM | TGI (UACC-257 melanoma): 46.8 µM | TGI (UACC-62 melanoma): 21.7 µM | TGI (UO-31 renal): 35.6 µM

O=C1C=CC(=O)c2c1cc([N+](=O)[O-])c1ccoc21
TGI (786-0 renal): 3.35 µM | TGI (A498 renal): 30 µM | TGI (A549 NSCLC): 40.9 µM | TGI (ACHN renal): 3.4 µM | TGI (BT-549 breast): 30.8 µM | TGI (CAKI-1 renal): 3.54 µM | TGI (CCRF-CEM leukemia): > 19.7 µM | TGI (COLO 205 colon): 8.63 µM | TGI (DU-145 prostate): > 58.6 µM | TGI (EKVX NSCLC): 41.1 µM | TGI (HCC-2998 colon): 41.6 µM | TGI (HCT-116 colon): 12.5 µM | TGI (HCT-15 colon): 58.5 µM | TGI (HL-60(TB) leukemia): 8.72 µM | TGI (HOP-62 NSCLC): 31.8 µM | TGI (HOP-92 NSCLC): 5 µM | TGI (HS 578T breast): > 60.1 µM | TGI (HT29 colon): 76.7 µM | TGI (IGROV1 ovarian): 51.9 µM | TGI (K-562 leukemia): > 100 µM | TGI (KM12 colon): 31.9 µM | TGI (LOX IMVI melanoma): > 44.5 µM | TGI (M14 melanoma): 11.3 µM | TGI (MCF7 breast): 44.3 µM | TGI (MDA-MB-231 breast): 52.7 µM | TGI (MDA-MB-435): 26.2 µM | TGI (MDA-N): 35.4 µM | TGI (NCI-H226 lung): > 62.7 µM | TGI (NCI-H23 lung): 46.2 µM | TGI (NCI-H460 lung): 35.2 µM | TGI (NCI-H522 lung): 4.4 µM | TGI (NCI/ADR-RES ovarian): > 70.8 µM | TGI (OVCAR-3 ovarian): 70.2 µM | TGI (OVCAR-4 ovarian): 38.6 µM | TGI (OVCAR-5 ovarian): 35.4 µM | TGI (OVCAR-8 ovarian): > 72.3 µM | TGI (PC-3 prostate): 30.7 µM | TGI (RPMI-8226 leukemia): > 100 µM | TGI (RXF 393 renal): 3.75 µM | TGI (SF-268 CNS): > 65.1 µM | TGI (SF-295 CNS): 35.8 µM | TGI (SF-539 CNS): 69.9 µM | TGI (SK-MEL-2 melanoma): 35.9 µM | TGI (SK-MEL-28 melanoma): 60 µM | TGI (SK-MEL-5 melanoma): 31.3 µM | TGI (SK-OV-3 ovarian): 43.6 µM | TGI (SN12C renal): 38.1 µM | TGI (SNB-19 CNS): 39.6 µM | TGI (SNB-75 CNS): > 59.5 µM | TGI (SR leukemia): > 100 µM | TGI (SW-620 colon): > 100 µM | TGI (T-47D breast): > 100 µM | TGI (TK-10 renal): 4.37 µM | TGI (U251 CNS): 37.2 µM | TGI (UACC-257 melanoma): 32.4 µM | TGI (UACC-62 melanoma): 29.4 µM | TGI (UO-31 renal): 8.09 µM
